Measurements taken from patent publication US20230132088A1, “DETECTION OF GENE POLYMORPHISMS” (The Board of Trustees of the Leland Stanford Junior …, priority 2020, published 2023).

Assay: Population pharmacokinetic analysis of INH clearance in tuberculosis patients, by predicted NAT2 acetylator type
Conditions: human, plasma, INH clearance rate (median), 48 pulmonary TB patients

NNC(=O)c1ccncc1 [INH, isoniazid]
clearance (predicted fast (rapid) acetylators): 778 mL/min | clearance (predicted intermediate acetylators): 683 mL/min | clearance (predicted slow acetylators, standardized weight-based dosing): 322 mL/min
